Assay results as given in PubChem BioAssay (NCI).
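48-hour exposure; five concentrations; linearly interpolated endpoints. Here, GI50 denotes the concentration required for 50% inhibition of growth. At the TGI there is no net growth.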

What was measured:
Experiment in all cases: inhibition of tumour cell growth, NCI panel, 48 h
OVCAR-4 ovarian = test system: OVCAR-4 ovarian
SK-MEL-2 melanoma = test system: SK-MEL-2 melanoma
T-47D breast = test system: T-47D breast
M14 melanoma = test system: M14 melanoma
SF-268 CNS = test system: SF-268 CNS
MDA-MB-435 = test system: MDA-MB-435
HCT-15 colon = test system: HCT-15 colon
U251 CNS = test system: U251 CNS
OVCAR-8 ovarian = test system: OVCAR-8 ovarian
MDA-MB-231 breast = test system: MDA-MB-231 breast

SMILES | GI50 (OVCAR-4 ovarian) [µM] | TGI (OVCAR-4 ovarian) [µM] | GI50 (SK-MEL-2 melanoma) [µM] | TGI (SK-MEL-2 melanoma) [µM] | GI50 (T-47D breast) [µM] | TGI (T-47D breast) [µM] | GI50 (M14 melanoma) [µM] | TGI (M14 melanoma) [µM] | GI50 (SF-268 CNS) [µM] | TGI (SF-268 CNS) [µM] | GI50 (MDA-MB-435) [µM] | TGI (MDA-MB-435) [µM] | GI50 (HCT-15 colon) [µM] | TGI (HCT-15 colon) [µM] | GI50 (U251 CNS) [µM] | TGI (U251 CNS) [µM] | GI50 (OVCAR-8 ovarian) [µM] | TGI (OVCAR-8 ovarian) [µM] | GI50 (MDA-MB-231 breast) [µM] | TGI (MDA-MB-231 breast) [µM]
C[C@@]12CCC[C@@](C)(C(=O)O)C1CC[C@]13C[C@@](O)(CO)[C@](O)(CCC12)C3 (stereo not given in full) | > 100 | > 100 | > 100 | > 100 | > 100 | > 100 | > 100 | > 100 | > 100 | > 100 | > 100 | > 100 | > 100 | > 100 | > 100 | > 100 | > 100 | > 100 | > 100 | > 100
O=C(Nc1ccncc1)C(=O)c1cn(S(=O)(=O)c2ccc(Cl)cc2)c2ccccc12 | 3.89 | > 70.3 | 3.24 | 27.3 | 0.905 | > 100 | 0.634 | > 52.1 | 1.39 | > 100 | 0.106 | 0.521 | 0.45 | > 100 | 1.06 | 17.8 | 1.63 | 97.1 | 3.69 | 32.3
S=C(Nc1ccc(-c2nc3ccccc3[nH]2)cc1)Nc1ccc(-c2nc3ccccc3[nH]2)cc1 | > 100 | > 100 | > 100 | > 100 | > 100 | > 100 | 60.3 | > 100 | > 100 | > 100 | > 100 | > 100 | 61.1 | > 100 | > 100 | > 100 | 59.6 | > 100 | 41.8 | > 100
COC(=O)c1cc(O)c2cc3c(cc2c1-c1cc(OC)c(OC)c(OC)c1)OCO3 | > 100 | > 100 | 0.4 | 6.21 | 2.38 | > 100 | 0.893 | > 100 | 2.94 | > 100 | 0.277 | 1.12 | 0.738 | > 100 | 0.577 | > 100 | 11.3 | > 100 | 1.5 | > 100
O=C(NCCCO)c1cc(Cl)ccc1O | 2.54 | 12.4 | 2.82 | 6.54 | 1.67 | 18 | 3.85 | 15.7 | 6.52 | 20.2 | 2.68 | 12.1 | 7.02 | 21.6 | 1.11 | 12.1 | 2.38 | 13 | 3.64 | 12.8
C=CC(=O)Nc1cc(C)ccc1Nc1nc(Nc2cc(OC)ncc2C)ncc1C(F)(F)F | 1.34 | > 100 | 0.313 | 1.85 | 1.2 | > 100 | 0.0668 | 0.686 | 1.28 | > 100 | 0.308 | 3.85 | 1.05 | > 28.5 | 0.758 | > 100 | 2.83 | > 100 | 0.336 | 1.87
